System: duodenal mucosa
Experiment: Test C: duodenal mucosal alkaline secretion assay
Format: in vivo, rat
Details: co-administration of the AT2 receptor antagonist with title compounds
Source text: Duodenal Mucosal Alkaline Secretion Assay
Compounds were exposed to the duodenal mucosa in barbiturate-anaesthetised rats prepared for in situ titration of duodenal mucosal alkaline secretion, according to the methodology described by Flemström et al in Am. J. Physiol. (1982) 243, G348.

Cc1cc(Cn2cnc3c2C[C@@H](C(=O)O)N(C(=O)C(c2ccccc2)c2ccccc2)C3)ccc1N(C)C [PD123319]
effect on the stimulation of mucosal alkalisation by the title compounds: blocked

— patent US8080571B2, “Tricyclic angiotensin II agonists” (Vicore Pharma AB, priority 2005, dated 2011)
